The values that follow come from PMC3368886, “ATPase Cycle and DNA Unwinding Kinetics of RecG Helicase” (PLoS ONE, 2012).

Assay [1] concerns the target T1, RecG (Thermotoga maritima, UniProt Q9WY48).
T1 construct: made in house
T1 sequence (Q9WY48 1-780): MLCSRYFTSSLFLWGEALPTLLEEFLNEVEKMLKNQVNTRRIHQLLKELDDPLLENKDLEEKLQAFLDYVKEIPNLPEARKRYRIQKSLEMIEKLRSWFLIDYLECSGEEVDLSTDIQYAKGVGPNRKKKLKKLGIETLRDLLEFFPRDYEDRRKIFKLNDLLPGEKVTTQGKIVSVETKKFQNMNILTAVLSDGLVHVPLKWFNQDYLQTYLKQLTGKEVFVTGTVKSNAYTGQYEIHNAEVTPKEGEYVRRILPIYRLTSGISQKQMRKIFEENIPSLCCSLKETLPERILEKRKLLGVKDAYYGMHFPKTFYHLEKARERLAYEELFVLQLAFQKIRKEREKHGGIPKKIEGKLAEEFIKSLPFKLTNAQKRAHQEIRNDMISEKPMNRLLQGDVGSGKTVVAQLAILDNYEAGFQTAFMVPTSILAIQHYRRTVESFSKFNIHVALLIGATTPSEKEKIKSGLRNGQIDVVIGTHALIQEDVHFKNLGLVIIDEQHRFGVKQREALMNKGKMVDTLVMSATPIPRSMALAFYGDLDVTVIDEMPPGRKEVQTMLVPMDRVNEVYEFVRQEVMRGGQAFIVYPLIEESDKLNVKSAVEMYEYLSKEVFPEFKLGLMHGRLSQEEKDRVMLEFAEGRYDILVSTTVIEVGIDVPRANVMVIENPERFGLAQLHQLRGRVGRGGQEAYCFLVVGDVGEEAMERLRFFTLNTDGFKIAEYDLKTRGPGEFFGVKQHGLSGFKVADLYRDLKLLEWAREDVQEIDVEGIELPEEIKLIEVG
Nature of the assay: Steady-state ATPase rate measurements with phosphate biosensor MDCC-PBP. The settings on record: for Ki: 10 µM ATP, varying inhibitor; for tightness of binding (competitive inhibition): result in words. It is filed as biochemical. An excerpt:
Steady-state measurements were made to gain an overall assessment of the reaction and the affinities of various nucleotides before investigating the individual steps in the ATPase cycle. A two-strand DNA junction, which contains two 20-bp regions of complementary and non-complementary sequences (A40:B40 Figure 1 and Table S1), was used in all these measurements. This forms a Y-shape structure and RecG translocates one single-stranded arm, but then remains bound to the end of the junction still hydrolyzing ATP [10].
All reactions with RecG and DNA were done at 20°C in a buffer containing 50 mM Tris⋅acetate (pH 8.0), 30 mM potassium acetate, 3 mM magnesium acetate and 1 mM DTT. ATPase measurements using MDCC-PBP were taken in the presence of a Pi mop, as described above. Steady-state ATPase measurements were taken in a solution (60 µl) at 20°C, containing 10 nM RecG, 500 nM DNA junction (A40∶B40, see Table S1) and 10 µM MDCC-PBP with varying nucleotide concentrations as substrate or inhibitor [23].

The target of assay [2] is T1, RecG. Briefly: Titrations of RecG into fluorescent nucleotides in the absence of DNA. It is filed as binding. As for the experimental part: The two phases of this fluorescence increase with excess RecG⋅DNA would therefore relate to formation of bound mantATP (1.5-fold intensity increase relative to free nucleotide) and bound mantADP (4.9-fold). This interpretation was supported by titrations of RecG into the fluorescent nucleotides in the absence of DNA.
Steady-state fluorescence was measured using a Cary Eclipse fluorimeter (Varian) with a xenon light source. Absorbance spectroscopy was performed using a Beckman DU640 spectrophotometer.

Assay [3] has as its target T2, RecG⋅DNA(A40:B40) (Thermotoga maritima, UniProt Q9WY48).
T2 construct: made in house
T2 sequence (Q9WY48 1-780): T1 sequence (Q9WY48 1-780)
Briefly: Stopped-flow mant fluorescence: mant nucleotide binding to RecG⋅DNA, pseudo-first-order. As to the method: MantATP binding to RecG⋅DNA(A40:B40) was measured under pseudo-first-order conditions, that is mantATP in large excess over the protein. Using the stopped-flow apparatus, several concentrations of mantATP were rapidly mixed with RecG⋅DNA and fluorescence followed with time. Each trace was fitted by a single exponential (Figure 3A) and the concentration dependence of the observed rate constants were fit well by a hyperbola (Figure 3B). […] As mantATP is also hydrolyzed, the rate of the forward reaction needs to be included, in this case limited by the cleavage step 2, as described later. The fit gives 1/K 1a as 24 (±4) µM, k +1b + k −1b + k +2 as 26.1 (±1.8) s^−1 and the intercept gives k −1b + k +2 as <1 s^−1. Given that k +2 is 0.2 s^–1 (see below), k −1b is <0.8 s^−1. Potentially, an alternative explanation for such a hyperbolic relationship could be preferential binding of either the 2′- or 3′-isomer of mantATP and then isomerization of the non-favored isomer. However, the observed rates in these measurements were several orders of magnitude faster than the likely isomerization rate. In order to assess whether the two isomers of mantATP and their interconversion are factors in any fluorescence traces for mantATP, an equivalent measurement was made using 3′-mant-2′-deoxyATP.
Figure 3 MantATP binding to RecG⋅DNA. MantATP at the micromolar concentrations shown was mixed in the stopped flow apparatus with 0.5 µM RecG and 2.5 µM DNA Junction (A40:B40) at 20°C in the buffer described in materials and methods. Individual traces (offset from each other) were fitted to single exponentials and the dependence of the rate constants on concentration was then fitted by a hyperbola. The points shown are averages of at least 3 measurements. The fit gives 1/K 1a as 24 (±4) µM and k +1b + k− 1b + k +2 as 26.1 (±1.8) s^−1 and the intercept was <1 s^–1 (Scheme in Figure 2B).
MantADP binding to RecG⋅DNA complex was measured under pseudo-first order conditions by stopped-flow fluorescence.
Figure 5 MantADP binding kinetics to RecG⋅DNA. MantADP at various concentrations was mixed in the stopped flow apparatus with 0.5 µM RecG and 2.5 µM DNA (A40:B40) under the conditions of Figure 4. Traces (not shown) were fitted by single exponentials. The rate constants are shown as a function of concentration and the best linear fit, gives a slope of 1.1 (±0.4) µM^−1s^−1 and an intercept of <1 s^−1.
(§1) Stopped-flow experiments were performed in a HiTech SF61DX2 apparatus (TgK Scientific Ltd, Bradford-on-Avon, UK) with a mercury-xenon light source and HiTech KinetAsyst 3 or Kinetic Studio 1 software. For MDCC-PBP fluorescence, the excitation wavelength used was 436 nm and a 455 nm cut-off filter (Schott glass) used to collect emitted light. The signal was calibrated using known concentrations of Pi. The solutions contained the Pi mop, to minimize phosphate contamination and comprising 0.01 unit ml^−1 bacterial purine nucleoside phosphorylase and 200 µM 7-methylguanosine. For mant fluorescence, 366 nm was used to excite and a 400 nm cut-off filter (Schott glass) used to collect light. Measurements of Cy3 fluorescence used 547 nm excitation and a 570 nm cut-off filter. In experiments described, the quoted concentrations are those in the mixing chamber, except where stated. Data were fitted to theoretical curves using the HiTech software or Grafit.

Assay [4] addresses T2, RecG⋅DNA(A40:B40). Briefly: Single turnover mant fluorescence, excess RecG⋅DNA over mantATP. The settings on record: excess RecG⋅DNA(A40:B40). Type of assay: biochemical. As for the experimental part: Extra information relating to changes in a single ATPase cycle can be obtained by mixing excess RecG⋅DNA(A40:B40) with mantATP (Figure 4A). […] The first change in fluorescence is presumably due to binding. After fitting to a double exponential, the observed rate constant for the initial change was linearly dependent on RecG concentration over the small range possible (0.5 µM –2.5 µM), limited by protein precipitation at higher concentrations. Due to the low concentrations, a hyperbolic dependence would not be observed. The observed rate constant of the second increase in fluorescence, 0.22 (±0.05) s^−1 (Figure 4A), was independent of RecG concentration. This second phase is likely to be due to the cleavage step, leading to the formation of bound mantADP.
Figure 4 Kinetic measurement of mantATP with excess of RecG and DNA: binding, hydrolysis and Pi release. The concentrations for all experiments were 0.5 µM mantATP, 2.5 µM RecG, 5 µM DNA (A40:B40) and 10 µM MDCC-PBP (for Pi measurement). All measurements were carried out at 20°C in the buffer described in Materials and Methods. (A) Time course of mant fluorescence (solid line), mantADP formation (circles) and Pi release (dashed line), measured as described in materials and methods. […] (B) Simulation of these time courses, based upon a global model for a single turnover of mantATP as described in the text. (C) The time course of mant fluorescence upon mixing 0.5 µM mantATP and 2.5 µM RecG with 5 µM DNA junction (A40:B40) after a first mixing of 5 µM RecG and 1 µM mantATP and aging for 1 s.
as §1

Assay [5] concerns the target T1, RecG. Nature of the assay: Phosphate-water oxygen exchange during hydrolysis. Type of assay: biochemical. The settings on record: DNA present (A40∶B40), γ-18O3 nucleotide, 25°C. The text has this: In order to get information about the reverse of cleavage step 2 (scheme in Figure 2A), phosphate-water oxygen exchange measurements were done using (γ-^18O3)mantATP. Intermediate exchange can occur between terminal oxygens of the nucleotide and water during hydrolysis, giving information about the value of k +3 /k −2, as previously described. In this case, (γ-^18O3)mantATP was used as substrate and partial hydrolysis occurred in the presence of RecG⋅DNA, as described in the materials and methods section. The Pi had very similar distribution of oxygen-18 as with (γ-^18O3)mantATP, consistent with essentially little reversal of the cleavage step (k +3 /k −2≥9). This is consistent with a rapid release of Pi.
For intermediate exchange during ATP hydrolysis, 0.5 µM RecG and 1 mM (γ-^18O3)ATP or (γ-^18O3)mantATP were incubated for 10 min (+1 µM DNA A40∶B40, Table S1) or 20 min (- DNA) at 25°C in a volume of 100 µl in the buffer described below. Pi was analyzed for distribution of different ^18O-labeled species on a mass spectrometer as described previously, [37] except that during purification, the ^18O-labeled Pi was detected by MDCC-PBP, rather than radioactive tracers.
Supplementary file pone.0038270.s005.pdf: Table S2 Oxygen exchange during ATP or mantATP hydrolysis by RecG: distributions of oxygen-18 in the Pi product. Experiments were performed as described in Materials and Methods. The data were corrected for isotopic enrichment of the starting nucleotide, 93% for (γ-^18O3)mantATP and 98% for (γ-^18O3) ATP. […] Each distribution is the average of three mass spectral assays. Thus the distributions are for the product Pi as though the starting enrichment was 100%. In all cases there was very little oxygen exchange as shown by the large peak of (^18O3)Pi, in which all three γ-oxygens of ATP are retained. The distributions were then used to compute the ratio of rate constants for Pi release (k +3) and on-enzyme ATP resynthesis (k −2) as in Figure 2 [14], [37].

Setting [6] is: 500 nM DNA junction (A40:B40), 20°C.
The mark [7] stands for this setting: 20°C, 10 nM RecG, 500 nM DNA junction (A40:B40).

What is called Ki is the dissociation constant of the complex between target and ligand, obtained from inhibition or displacement. For the compound `Nc1ncnc2c1ncn2[C@@H]1O[C@H](COP(=O)(O)OP(=O)(O)NP(=O)(O)O)[C@@H](O)[C@H]1O` [AMPPNP], affinity at RecG [1] (setting [6]) was put at a Ki of 44000 nM. Moreover, the “tightness of binding (competitive inhibition)” value on RecG [1] is given as “bound weakly”.

Usually Kd stands for the equilibrium constant for the complex coming apart. Higher therefore signals weaker binding. In the case of `CNc1ccccc1C(=O)O[C@H]1[C@@H](O)[C@H](n2cnc3c(N)ncnc32)O[C@@H]1COP(=O)(O)OP(=O)(O)O` [mantADP], the Ki on RecG [1] (setting [6]) came out at 30 nM. At RecG [2], the “increase in fluorescence on titration with RecG” value turned out to be 4.8 fold. Also, at RecG⋅DNA(A40:B40) [3] (20°C, linear fit), the “k +4 (mantADP dissociation rate constant, intercept)” value was less than 1 s⁻¹. Moreover, the Kd at RecG⋅DNA(A40:B40) [3] (mantADP with RecG⋅DNA, used as model assumption) was less than 50 nM. The “increase in fluorescence on binding to RecG⋅DNA” value at RecG⋅DNA(A40:B40) [3] (same conditions as hydrolysis and Pi release measurements) turned out to be 4.5 fold. Also, the “fluorescence intensity increase of bound nucleotide relative to free nucleotide” value at RecG⋅DNA(A40:B40) [4] worked out at 4.9 fold.

As to `Nc1ncnc2c1ncn2[C@@H]1O[C@H](CO[P@](=O)(O)O[P@](=O)(O)O[P@@](=O)(O)S)[C@@H](O)[C@H]1O` [ATPγS], the inhibition constant Ki on RecG [1] (setting [6]) is 900 nM. For the same compound, at RecG [1], the “tightness of binding (competitive inhibition)” value is “bound tightly”. Besides, the rate of hydrolysis on RecG [1] (slowly hydrolyzed analogue) was 0.1 s⁻¹.

Regarding `CNc1ccccc1C(=O)O[C@H]1C[C@H](n2cnc3c(N)ncnc32)O[C@@H]1COP(=O)(O)OP(=O)(O)OP(=O)(O)O` [Mant-deoxyATP, 3′-mant-2′-deoxyATP], at RecG [1] (setting [7]), the K m is 3.1 (±1.4) µM and the k cat is given as 1.3 (±0.5) s^−1.

As for (γ-^18O3)mantATP, the “k +3 /k −2” value at RecG [5] is not below 9.

Turning to `CNc1ccccc1C(=O)O[C@H]1C[C@H](n2cnc3c(N)ncnc32)O[C@@H]1COP(=O)(O)OP(=O)(O)O` [Mant-deoxyADP], the affinity on RecG [1] (setting [6]) corresponds to a Ki of 100 nM.
